Results: patent publication US20090234019A1, “T Type Calcium Channel Inhibitors” (priority 2004, published 2009)
Like-named read-outs stand apart in the source and are kept apart here. One block for each compound: values may come before it.

How the values were obtained:
[1] = tested on: Jurkat cells; experiment: Inhibition of calcium entry into Jurkat cells (indo-1 fluorescence); assay type: cell-based, human
Description: Cells were incubated in growth media containing 1 uM of the acetoxy-methyl ester of the Ca2+-sensitive fluorescent dye indo-1 (indo-1/AM; Molecular Probes, Eugene, Oreg.) for 1 h at 37° C. Cells were washed three times in buffer A [10 mM HEPES (pH 7.4), 1 mM MgCl2, 3 mM KCl, 1 mM CaCl2, 140 mM NaCl, 0.1% glucose, and 1% fetal bovine serum] and suspended to a final concentration of 10^6 cells/ml. Before stimulation, cells were warmed to 37° C. Changes in [Ca2+]i were monitored in an SLM […] spectrofluorimeter (SLM/Aminco; Urbana, Ill.) using previously published methods ([…]., Szabo, G., and Gray, L. S. 1996. A voltage operable current is involved in activation-induced Ca^2+ entry in human lymphocytes whereas ICRAC has no apparent role. Am. J. Physiol. 271:[…]., and Gray, L. S. 1998. Calmodulin regulation of Ca^2+ entry in Jurkat T cells. Cell Calcium 23:361-368).

[2] = tested on: Jurkat cells; experiment: Inhibition of proliferation of Jurkat cells; assay type: cell-based, human
Description: (§1) Cancer cell lines were obtained from the American Type Culture Collection (Manassas, Va.). Cell lines were maintained in RPMI1640 supplemented with glutamine and 5% fetal bovine serum containing SerXtend (Irvine Scientific) when appropriate insulin, as directed by the ATCC. The fetal bovine serum used for culture was heat-inactivated by maintaining the serum at 56° C. for 1 h. Cell lines used were a T celleukemia (Jurkat), prostate cancer (PC3, DU145, LNCAP), breast cancer (MDA468, MDA361, MCF7), pancreatic cancer (MIA PaCa2), liver cancer (Hep G2), lung cancer (A549, NCl H460), colon cancer (HT29, HCT 116), and ovarian cancer (SK-OV-3).
(§2) LNCaP cells at 2.5×10^4 cells/well or PC-3 cells at 5×10^4 cells/well, both in a final volume of […], were plated in triplicate in standard flat-bottomed 96-well tissue culture plates in the presence of drug or vehicle (DMSO). Unless otherwise indicated, cells were grown for 48 h at 37° C. in a CO2 incubator. Relative cell growth was determined with the CellTiter 96 aqueous cell proliferation assay (Promega, Madison, Wis.) as described by the manufacturer using an automated plate reader. Results were calculated in a blinded fashion and are the means of triplicate determinations.

[3] = tested on: PC3 cells; experiment: Inhibition of proliferation of PC3 cells; assay type: cell-based, human; details: Homo sapiens, PC-3, PC3, read-out: prolif: IC50 for inhibition of proliferation, PC3
Description: as §1, §2

[4] = tested on: MDA-231 cells; experiment: Inhibition of proliferation of MDA-231 cells; assay type: cell-based; details: Homo sapiens, read-out: prolif: IC50 for inhibition of proliferation, MDA-231
[5] = tested on: MDA-231 cells; experiment: Inhibition of calcium entry into MDA-231 cells; assay type: cell-based; details: Homo sapiens, MDA-MB-231, NE = no effect at highest concentration of drug tested, read-out: Ca2+: IC50 for inhibition of calcium entry, MDA-231
Description: (§3) Cells were incubated in growth media containing 1 uM of the acetoxy-methyl ester of the Ca2+-sensitive fluorescent dye indo-1 (indo-1/AM; Molecular Probes, Eugene, Oreg.) for 1 h at 37° C. Cells were washed three times in buffer A [10 mM HEPES (pH 7.4), 1 mM MgCl2, 3 mM KCl, 1 mM CaCl2, 140 mM NaCl, 0.1% glucose, and 1% fetal bovine serum] and suspended to a final concentration of 10^6 cells/ml. Before stimulation, cells were warmed to 37° C. Changes in [Ca2+]i were monitored in an SLM 8100C spectrofluorimeter (SLM/Aminco; Urbana, Ill.) using previously published methods (Densmore, J. J., Haverstick, D. M., Szabo, G., and Gray, L. S. 1996. A voltage operable current is involved in activation-induced Ca^2+ entry in human lymphocytes whereas ICRAC has no apparent role. Am. J. Physiol. 271:C1494-C1503; Haverstick, D. M., Densmore, J. J., and Gray, L. S. 1998. Calmodulin regulation of Ca^2+ entry in Jurkat T cells. Cell Calcium 23:361-368).

[6] = tested on: MDA-435 cells; experiment: Inhibition of proliferation of MDA-435 cells; assay type: cell-based; details: read-out: prolif: IC50 for inhibition of proliferation, MDA-435
[7] = tested on: LNCaP cells; experiment: Inhibition of proliferation of LNCaP cells; assay type: cell-based; details: Homo sapiens, read-out: prolif: IC50 for inhibition of proliferation, LNCaP
Description: as §1, §2

[8] = tested on: MDA-361 cells; experiment: Inhibition of proliferation of MDA-361 cells; assay type: cell-based; details: MDA361, NE = no effect at highest concentration of drug tested, read-out: prolif: IC50 for inhibition of proliferation, MDA-361
Description: as §1, §2

[9] = tested on: LNCaP cells; experiment: Inhibition of calcium entry into LNCaP cells; assay type: cell-based; details: Homo sapiens, NE = no effect at highest concentration of drug tested, read-out: Ca2+: IC50 for inhibition of calcium entry, LNCaP
Description: as §3

[10] = tested on: MDA-435 cells; experiment: Inhibition of calcium entry into MDA-435 cells; assay type: cell-based; details: MDA435, NE = no effect at highest concentration of drug tested, read-out: Ca2+: IC50 for inhibition of calcium entry, MDA-435
Description: as §3

[11] = Homo sapiens, Jurkat cell line, Tables 1 and 2, unit inferred, read-out: IC50 for inhibition of Ca^2+ entry
[12] = Homo sapiens, Jurkat cell line, Tables 1 and 2, unit inferred, read-out: IC50 for inhibition of proliferation
[13] = NE = no effect at highest concentration of drug tested
[14] = MDA-MB-231, NE = no effect at highest concentration of drug tested
[15] = MDA435, NE = no effect at highest concentration of drug tested
[16] = Homo sapiens, Jurkat, NE = no effect at highest concentration of drug tested, read-out: Ca2+: IC50 for inhibition of calcium entry, Jurkat
[17] = Homo sapiens, Jurkat, NE = no effect at highest concentration of drug tested, read-out: prolif: IC50 for inhibition of proliferation, Jurkat

IC50 [1, 11]: 10 µM | IC50 [2, 12]: 30 µM
SMILES: CCN(CC)C(C)CN1c2ccccc2Sc2ccccc21 (stereo not shown) [Ethopropazine]

IC50 [1, 11]: 10 µM | IC50 [2, 12]: 30 µM
SMILES: COC(=O)C1=C(C)NC(C)=C(C(=O)OCCN(C)Cc2ccccc2)C1c1cccc([N+](=O)[O-])c1 (stereo not shown) [Nicardipine]

IC50 [1, 11]: 5 µM | IC50 [2, 12]: 10 µM
SMILES: CC(C)COCC(CN(Cc1ccccc1)c1ccccc1)N1CCCC1 (stereo not shown) [Bepridil]

IC50 [1, 11]: > 100 µM | IC50 [2, 12]: > 100 µM
SMILES: CC(NC(C)(C)C)C(=O)c1cccc(Cl)c1 (stereo not shown) [Bupropion]

IC50 [3, 13]: 0.009 mM | IC50 [5]: 10 µM | IC50 [7, 13]: 0.009 mM | IC50 [1, 16]: 3 µM | IC50 [2, 17]: 13 µM
SMILES: COc1ccc(CCCCCNCC(c2ccccc2)c2ccc(Cl)cc2)cc1 (stereo not shown) [Compound 3.22]
IC50 [4, 14]: 0.025 mM | IC50 [6, 15]: 0.04 mM

IC50 [1, 11]: 10 µM | IC50 [2, 12]: 3 µM
SMILES: COc1ccc2cc1Oc1ccc(cc1)C[C@H]1c3cc(c(OC)cc3CCN1C)Oc1c(OC)c(OC)cc3c1[C@H](C2)N(C)CC3 [Tetrandrine]

IC50 ([1]; Jurkat cell line, Tables 1 and 2, unit inferred, read-out: IC50 for inhibition of Ca^2+ entry): 10 µM | IC50 ([2]; Jurkat cell line, Tables 1 and 2, unit inferred, read-out: IC50 for inhibition of proliferation): 30 µM
SMILES: CC(Cc1ccc(O)c(O)c1)C(C)Cc1ccc(O)c(O)c1 (stereo not shown) [NDGA, Nordihydroguaiaretic acid]

IC50 [1, 11]: 25 µM | IC50 [2, 12]: 90 µM
SMILES: CN1CCN(C(c2ccccc2)c2ccc(Cl)cc2)CC1 (stereo not shown) [Chlorcyclizine]

SMILES: C[C@H](CCC(=O)O)C[C@H](C)C[C@H](C)C(=O)/C=C(\O)[C@H](C)C[C@H](C)C/C=C/[C@@H](C)[C@@H](O)[C@@H](C)[C@@H](O)C[C@@H]1CC[C@@](C)([C@H]2CC[C@@](C)([C@@H](C)O)O2)O1 [ionomycin]
effect on proliferation of ionomycin alone ([2]; 30 nM ionomycin alone, Jurkat): no effect

IC50 [1, 11]: 5 µM | IC50 [2, 12]: 10 µM
SMILES: C1CCC(C(CC2CCCCN2)C2CCCCC2)CC1 (stereo not shown) [Perhexiline]

IC50 [1, 11]: 30 µM | IC50 [2, 12]: 30 µM
SMILES: Cc1cccc(CN2CCN(C(c3ccccc3)c3ccc(Cl)cc3)CC2)c1 (stereo not shown) [Meclizine]

IC50 [1, 11]: 10 µM | IC50 [2, 12]: 30 µM
SMILES: COc1ccc2c(c1)N(C[C@H](C)CN(C)C)c1ccccc1S2 [Methotrimeprazine]

IC50 ([3]; mM): > 1 mM | IC50 ([7]; mM): > 1 mM | IC50 [2, 17]: > 300 µM
SMILES: COc1ccc(CCNc2ccccc2COC(c2ccccc2)c2ccc(Cl)cc2)cc1 (stereo not shown) [Compound 3.10]
IC50 ([4]; MDA-MB-231, mM): > 1 mM | IC50 ([6]; MDA435, mM): > 1 mM | IC50 [8]: ~70 µM

IC50 [3, 13]: 0.01 mM | IC50 [5]: 10 µM | IC50 [9]: 10 µM | IC50 [7, 13]: 0.003 mM | IC50 [10]: 10 µM | IC50 [1, 16]: 10 µM | IC50 [2, 17]: 4 µM
SMILES: COc1ccc(CCNCCCCC(c2ccccc2)c2ccc(Cl)cc2)cc1 (stereo not shown) [Compound 3.19]
IC50 [4, 14]: 0.006 mM | IC50 [6, 15]: 0.011 mM

IC50 [3, 13]: > 0.1 mM | IC50 [5]: 30 µM | IC50 [9]: 30 µM | IC50 [7, 13]: > 0.1 mM | IC50 [10]: 30 µM | IC50 [1, 16]: 30 µM | IC50 [2, 17]: > 100 µM
SMILES: COc1ccc(NCCCCCCC(c2ccccc2)c2ccc(Cl)cc2)cc1 (stereo not shown) [Compound 3.17]
IC50 [4, 14]: > 0.1 mM | IC50 [6, 15]: > 0.1 mM
